The values that follow are results of earlier work, collected in patent US20120148652A1, “METHOD FOR INCORPORATING MEDICINE INTO A PLANT” (EARTH CHEMICAL CO., LTD., priority 2009, published 2012).

The conditions of the data set: 20° C., reference value.

Turning to `CC1(C)[C@H](C=C(Cl)Cl)[C@H]1C(=O)OCc1c(F)c(F)cc(F)c1F` [transfluthrin, Transfluthrin], the vapor pressure is 4.0×10^−6 hPa.

As to `CC(C)=CC1C(C(=O)OC(C#N)c2cccc(Oc3ccccc3)c2)C1(C)C` (stereo not drawn) [d,d-T-cyphenothrin], the vapor pressure is given as < 1.33×10^−7 hPa.
